Converted amounts (≈) assume the structure as drawn. Where two headings read alike, the source gives them in different places.
Assays:
Test in all cases: in vitro antibacterial evaluation, MIC by broth dilution
Type in all cases: cell-based
Escherichia coli = system: Escherichia coli
Streptococcus sp. = system: Streptococcus sp.
Method in brief: (§1)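 Broth dilution per NCCLS M7-A2 in Mueller-Hinton II medium, inoculum 5×10^5 CFU/mL, antibiotic range 64-0.06 μg/mL. MIC taken as lowest concentration inhibiting growth; Gram-positive panel includes recent clinical isolates resistant to methicillin, penicillin and/or vancomycin.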

Staphylococcus sp. = system: Staphylococcus sp.
Method in brief: as §1

Enterococcus sp. = system: Enterococcus sp.
Method in brief: as §1

[1] = broth dilution, 18 hours at 35° C.

Molecule: CC(c1ccccc1)C1NC(=O)CNC(=O)C(CO)NC(=O)C(C(O)C2CNC(=N)N2C2OC(CO)C(O)C3OC(C)(C)OC32)NC(=O)C(C(O)C2CNC(=N)N2)NC(=O)C(Cc2ccc(OC3OC(CO)C(OC4OC(CO)C(O)C(O)C4O)C4OC(C)(C)OC34)cc2)NC1=O (stereo not shown) [Example 229]
- MIC Escherichia coli (ATCC 25922) (Escherichia coli; 18 hours at 35° C.): >128 µg/mL
- MIC Escherichia coli (GC 4559) (Escherichia coli; 18 hours at 35° C.): >128 µg/mL
- MIC Escherichia coli (GC 4560) (Escherichia coli; 18 hours at 35° C.): >128 µg/mL
- MIC Streptococcus agalactiae (GC 4564) (Streptococcus sp.; [1]): >128 µg/mL
- MIC Streptococcus pneumoniae (ATCC 6301) (Streptococcus sp.; [1]): >128 µg/mL
- MIC Streptococcus pneumoniae (GC 1894) (Streptococcus sp.; [1]): >128 µg/mL
- MIC Streptococcus pneumoniae (GC 4565) (Streptococcus sp.; [1]): >128 µg/mL
- MIC Streptococcus pyogenes (GC 4563) (Streptococcus sp.; [1]): >128 µg/mL
- MIC Streptococcus pneumoniae (ATCC 6301) (Streptococcus sp.; broth dilution, inoculum 5×10^5 CFU/mL, 18 hours at 35° C., strain ATCC 6301): >128 µg/mL
- MIC Streptococcus pneumoniae (GC 1894) (Streptococcus sp.; broth dilution, inoculum 5×10^5 CFU/mL, 18 hours at 35° C., strain GC 1894): >128 µg/mL
- MIC Streptococcus pyogenes (GC 4563) (Streptococcus sp.; broth dilution, inoculum 5×10^5 CFU/mL, 18 hours at 35° C., strain GC 4563): >128 µg/mL
- MIC Streptococcus agalactiae (GC 4564) (Streptococcus sp.; broth dilution, inoculum 5×10^5 CFU/mL, 18 hours at 35° C., strain GC 4564): >128 µg/mL
- MIC Streptococcus pneumoniae (GC 4565) (Streptococcus sp.; broth dilution, inoculum 5×10^5 CFU/mL, 18 hours at 35° C., strain GC 4565): >128 µg/mL
- MIC Coagulase Negative Staphylococcus (GC 4547) (Staphylococcus sp.; [1]): >128 µg/mL
- MIC Coagulase Negative Staphylococcus (GC 4548) (Staphylococcus sp.; [1]): >128 µg/mL
- MIC Coagulase Negative Staphylococcus (GC 4549) (Staphylococcus sp.; [1]): >128 µg/mL
- MIC Coagulase Negative Staphylococcus (GC 4551) (Staphylococcus sp.; [1]): >128 µg/mL
- MIC Coagulase Negative Staphylococcus (GC 6257) (Staphylococcus sp.; [1]): >128 µg/mL
- MIC Staphylococcus aureus-SMITH (GC 4543) (Staphylococcus sp.; [1]): >128 µg/mL
- MIC Staphylococcus haemolyticus (GC 4546) (Staphylococcus sp.; [1]): >128 µg/mL
- MIC Staphylococcus aureus-SMITH (GC 4543) (Staphylococcus sp.; broth dilution, 18 hours at 35° C., strain GC 4543): >128 µg/mL
- MIC Staphylococcus haemolyticus (GC 4546) (Staphylococcus sp.; broth dilution, 18 hours at 35° C., strain GC 4546): >128 µg/mL
- MIC Coagulase Negative Staphylococcus (GC 4547) (Staphylococcus sp.; broth dilution, 18 hours at 35° C., strain GC 4547): >128 µg/mL
- MIC Coagulase Negative Staphylococcus (GC 4548) (Staphylococcus sp.; broth dilution, 18 hours at 35° C., strain GC 4548): >128 µg/mL
- MIC Coagulase Negative Staphylococcus (GC 4549) (Staphylococcus sp.; broth dilution, 18 hours at 35° C., strain GC 4549): >128 µg/mL
- MIC Coagulase Negative Staphylococcus (GC 4551) (Staphylococcus sp.; broth dilution, 18 hours at 35° C., strain GC 4551): >128 µg/mL
- MIC Coagulase Negative Staphylococcus (GC 6257) (Staphylococcus sp.; broth dilution, 18 hours at 35° C., strain GC 6257): >128 µg/mL
- MIC Staphylococcus aureus (ATCC 29213) (Staphylococcus sp.; strain ATCC 29213, broth dilution, 18 hours at 35° C.): >128 µg/mL
- MIC Staphylococcus aureus (GC 1131) (Staphylococcus sp.; strain GC 1131, broth dilution, 18 hours at 35° C.): >128 µg/mL
- MIC Staphylococcus aureus (GC 3051) (Staphylococcus sp.; strain GC 3051, broth dilution, 18 hours at 35° C.): >128 µg/mL
- MIC Staphylococcus aureus (GC 3053) (Staphylococcus sp.; strain GC 3053, broth dilution, 18 hours at 35° C.): >128 µg/mL
- MIC Staphylococcus aureus (GC 4541) (Staphylococcus sp.; strain GC 4541, broth dilution, 18 hours at 35° C.): >128 µg/mL
- MIC Staphylococcus aureus (GC 4542) (Staphylococcus sp.; strain GC 4542, broth dilution, 18 hours at 35° C.): >128 µg/mL
- MIC Staphylococcus aureus (GC 4544) (Staphylococcus sp.; strain GC 4544, broth dilution, 18 hours at 35° C.): >128 µg/mL
- MIC Staphylococcus aureus (GC 4545) (Staphylococcus sp.; strain GC 4545, broth dilution, 18 hours at 35° C.): >128 µg/mL
- MIC Enterococcus avium (GC 4558) (Enterococcus sp.; [1]): 128 µg/mL (≈ 93.1 µM)
- MIC Enterococcus faecalis (ATCC 29212) (Enterococcus sp.; [1]): >128 µg/mL
- MIC Enterococcus faecalis (GC 2242) (Enterococcus sp.; [1]): >128 µg/mL
- MIC Enterococcus faecalis (GC 2691) (Enterococcus sp.; [1]): >128 µg/mL
- MIC Enterococcus faecalis (GC 3059) (Enterococcus sp.; [1]): >128 µg/mL
- MIC Enterococcus faecalis (GC 4552) (Enterococcus sp.; [1]): >128 µg/mL
- MIC Enterococcus faecalis (GC 4553) (Enterococcus sp.; [1]): >128 µg/mL
- MIC Enterococcus faecalis (GC 4554) (Enterococcus sp.; [1]): >128 µg/mL
- MIC Enterococcus faecalis (GC 6189) (Enterococcus sp.; [1]): >128 µg/mL
- MIC Enterococcus faecium (GC 2243) (Enterococcus sp.; [1]): >128 µg/mL
- MIC Enterococcus faecium (GC 4556) (Enterococcus sp.; [1]): >128 µg/mL
- MIC Enterococcus faecium (GC 4557) (Enterococcus sp.; [1]): >128 µg/mL
- MIC Enterococcus faecalis (ATCC 29212) (Enterococcus sp.; broth dilution, inoculum 5×10^5 CFU/mL, 18 hours at 35° C., strain ATCC 29212): >128 µg/mL
- MIC Enterococcus faecalis (GC 2242) (Enterococcus sp.; broth dilution, inoculum 5×10^5 CFU/mL, 18 hours at 35° C., strain GC 2242): >128 µg/mL
- MIC Enterococcus faecium (GC 2243) (Enterococcus sp.; broth dilution, inoculum 5×10^5 CFU/mL, 18 hours at 35° C., strain GC 2243): >128 µg/mL
- MIC Enterococcus faecalis (GC 2691) (Enterococcus sp.; broth dilution, inoculum 5×10^5 CFU/mL, 18 hours at 35° C., strain GC 2691): >128 µg/mL
- MIC Enterococcus faecalis (GC 3059) (Enterococcus sp.; broth dilution, inoculum 5×10^5 CFU/mL, 18 hours at 35° C., strain GC 3059): >128 µg/mL
- MIC Enterococcus faecalis (GC 4552) (Enterococcus sp.; broth dilution, inoculum 5×10^5 CFU/mL, 18 hours at 35° C., strain GC 4552): >128 µg/mL
- MIC Enterococcus faecalis (GC 4553) (Enterococcus sp.; broth dilution, inoculum 5×10^5 CFU/mL, 18 hours at 35° C., strain GC 4553): >128 µg/mL
- MIC Enterococcus faecalis (GC 4554) (Enterococcus sp.; broth dilution, inoculum 5×10^5 CFU/mL, 18 hours at 35° C., strain GC 4554): >128 µg/mL
- MIC Enterococcus faecium (GC 4556) (Enterococcus sp.; broth dilution, inoculum 5×10^5 CFU/mL, 18 hours at 35° C., strain GC 4556): >128 µg/mL
- MIC Enterococcus faecium (GC 4557) (Enterococcus sp.; broth dilution, inoculum 5×10^5 CFU/mL, 18 hours at 35° C., strain GC 4557): >128 µg/mL
- MIC Enterococcus avium (GC 4558) (Enterococcus sp.; broth dilution, inoculum 5×10^5 CFU/mL, 18 hours at 35° C., strain GC 4558): 128 µg/mL (≈ 93.1 µM)
- MIC Enterococcus faecalis (GC 6189) (Enterococcus sp.; broth dilution, inoculum 5×10^5 CFU/mL, 18 hours at 35° C., strain GC 6189): >128 µg/mL

Molecule: Cyclo[3-[[2-(2,3,4,6-tetra-O-benzoylhexopyranosyl)amino]-1,3-benzoxazol-5-yl]alanyl-3-(2-iminoimidazolidin-4-yl)seryl-3-(3-hexopyranosyl-2-iminoimidazolidin 4-yl)seryl-serylglycyl-β-methylphenylalanyl] [Example 44]
- MIC Escherichia coli (ATCC 25922) (Escherichia coli): >64 µg/mL
- MIC Escherichia coli (GC 4559) (Escherichia coli): >64 µg/mL
- MIC Escherichia coli (GC 4560) (Escherichia coli): 64 µg/mL
- MIC Streptococcus agalactiae (GC 4564) (Streptococcus sp.): 16 µg/mL
- MIC Streptococcus pneumoniae (ATCC 6301) (Streptococcus sp.): 8 µg/mL
- MIC Streptococcus pneumoniae (GC 1894) (Streptococcus sp.): 16 µg/mL
- MIC Streptococcus pneumoniae (GC 4565) (Streptococcus sp.): 32 µg/mL
- MIC Streptococcus pyogenes (GC 4563) (Streptococcus sp.): 4 µg/mL
- MIC Coagulase Negative Staphylococcus (GC 4547) (Staphylococcus sp.): 64 µg/mL
- MIC Coagulase Negative Staphylococcus (GC 4548) (Staphylococcus sp.): 8 µg/mL
- MIC Coagulase Negative Staphylococcus (GC 4549) (Staphylococcus sp.): 2 µg/mL
- MIC Coagulase Negative Staphylococcus (GC 4551) (Staphylococcus sp.): 16 µg/mL
- MIC Coagulase Negative Staphylococcus (GC 6257) (Staphylococcus sp.): 8 µg/mL
- MIC Staphylococcus aureus (ATCC 29213) (Staphylococcus sp.): 64 µg/mL
- MIC Staphylococcus aureus (GC 1131) (Staphylococcus sp.): 64 µg/mL
- MIC Staphylococcus aureus (GC 3051) (Staphylococcus sp.): 64 µg/mL
- MIC Staphylococcus aureus (GC 3053) (Staphylococcus sp.): 32 µg/mL
- MIC Staphylococcus aureus (GC 4541) (Staphylococcus sp.): 64 µg/mL
- MIC Staphylococcus aureus (GC 4542) (Staphylococcus sp.): 64 µg/mL
- MIC Staphylococcus aureus (GC 4544) (Staphylococcus sp.): 16 µg/mL
- MIC Staphylococcus aureus (GC 4545) (Staphylococcus sp.): 16 µg/mL
- MIC Staphylococcus aureus-SMITH (GC 4543) (Staphylococcus sp.): 32 µg/mL
- MIC Staphylococcus haemolyticus (GC 4546) (Staphylococcus sp.): 64 µg/mL
- MIC Enterococcus avium (GC 4558) (Enterococcus sp.): 4 µg/mL
- MIC Enterococcus faecalis (ATCC 29212) (Enterococcus sp.): 16 µg/mL
- MIC Enterococcus faecalis (GC 2242) (Enterococcus sp.): 16 µg/mL
- MIC Enterococcus faecalis (GC 2691) (Enterococcus sp.): 16 µg/mL
- MIC Enterococcus faecalis (GC 3059) (Enterococcus sp.): 32 µg/mL
- MIC Enterococcus faecalis (GC 4552) (Enterococcus sp.): 16 µg/mL
- MIC Enterococcus faecalis (GC 4553) (Enterococcus sp.): 8 µg/mL
- MIC Enterococcus faecalis (GC 4554) (Enterococcus sp.): 32 µg/mL
- MIC Enterococcus faecalis (GC 6189) (Enterococcus sp.): 16 µg/mL
- MIC Enterococcus faecium (GC 2243) (Enterococcus sp.): 8 µg/mL
- MIC Enterococcus faecium (GC 4556) (Enterococcus sp.): 32 µg/mL
- MIC Enterococcus faecium (GC 4557) (Enterococcus sp.): 8 µg/mL
